Reference: patent US9856232B1, “Dihydropyrimidinone derivatives” (KING SAUD UNIVERSITY, priority 2017, dated 2018)

What was measured:
[1] = test system: Gastric lesions induced by 80% ethanol; experiment: Gastric lesions induced by ethanol (ulcer index by severity scores); assay type: in vivo, Albino Wistar rats; conditions: Rattus norvegicus, po, vs 80% EtOH group, read-out: Gastric lesions induced by 80% ethanol, % change; for inhibition in vivo at 12.5 mg/kg: compound 12.5 mg/kg; for inhibition in vivo at 25 mg/kg: compound 25 mg/kg; for inhibition in vivo at 50 mg/kg: compound 50 mg/kg
Experimental: Albino Wistar rats of either sex, approximately the same age, weighing 150 to 200 g and fed on a diet of standard chow were used in this study. They were randomly divided into experimental groups of six rats each. Compounds (N-1 to N-18) 12.5, 25, and 50 mg/kg were given orally in the anti-ulcer studies and intraperitoneally for gastric secretion evaluation. The rats were sacrificed, and the stomachs removed and opened along the greater curvature, After washing with saline, the gastric lesions were quantified by a person unaware of the treatments. The animal study protocol was approved by the Research and Ethics Committee of the Experimental Animal Care Society, College of Pharmacy, King Saud University, Riyadh, Saudi Arabia.
Gastric lesions induced by ethanol: Albino rats of either sex weighing between (150-200 g) are divided into groups. The animals were fasted for 24 hours with free access to water. Animals were given test drugs or standard drug. One hour later 1 mL/200 gm of 80% ethanol is administered orally to each animal. The animals were anaesthetized 1 hour latter with anesthetic ether and stomach was incised along the greater curvature and ulceration was scored. The number of ulcers and the length of each ulcer were measured. Ulcer index was calculated using severity scores. The mucosal damage was examined by means of a magnifying glass. For each stomach the mucosal damage was assessed according to the following scoring system: 0.5 redness; 1.0 spot ulcers; 1.5 hemorrhagic streaks; 2.0 ulcers<3, but≦5; 3.0 ulcers>5. Table 1 provides the effect of compounds on gastric lesions induced by 80% ethanol (mean±SE).

| Structure (SMILES) | inhibition in vivo at 12.5 mg/kg [1] [%] | inhibition in vivo at 25 mg/kg [1] [%] | inhibition in vivo at 50 mg/kg [1] [%] | melting point [°C] |
| --- | --- | --- | --- | --- |
| O=C1NC=C(C(=O)c2ccc(N3CCCCC3)cc2)C(c2cccc(O)c2)N1 (centres unmarked) [Compound N-10, 4-(3-Hydroxyphenyl)-5-[4-(piperidin-1-yl)benzoyl]-3,4-dihydropyrimidin-2(1H)-one] | 14 | 17.8 | 21.4 | 190 to 192 |
| O=C1NC=C(C(=O)c2ccc(N3CCCCC3)cc2)C(c2ccc(Cl)cc2)N1 (centres unmarked) [Compound N-5, 4-(4-Chlorophenyl)-5-[4-(piperidin-1-yl)benzoyl]-3,4-dihydropyrimidin-2(1H)-one] | – | 7.1 | 10.7 | 230 to 232 |
| O=C1NC=C(C(=O)c2ccc(N3CCCCC3)cc2)C(c2ccccc2[N+](=O)[O-])N1 (centres unmarked) [Compound N-2, 4-(2-Nitrophenyl)-5-[4-(piperidin-1-yl)benzoyl]-3,4-dihydropyrimidine-2(1H)-one] | 14.2 | 21.4 | 28.5 | 190 to 192 |
| COc1cc(C2NC(=O)NC=C2C(=O)c2ccc(N3CCCCC3)cc2)cc(OC)c1OC (centres unmarked) [Compound N-16, 4-(3,4,5-Trimethoxyphenyl)-5-[4-(piperidin-1-yl)benzoyl]-3,4-dihydropyrimidin-2(1H)-one] | 7.1 | 17.8 | 21.4 | 135 to 137 |
| O=C1NC=C(C(=O)c2ccc(N3CCCCC3)cc2)C(c2cccc([N+](=O)[O-])c2)N1 (centres unmarked) [Compound N-4, 4-(3-Nitrophenyl)-5-[4-(piperidin-1-yl)benzoyl]-3,4-dihydropyrimidin-2(1H)-one] | – | – | 7.4 | 185 to 187 |
| COc1cc(OC)c(C2NC(=O)NC=C2C(=O)c2ccc(N3CCCCC3)cc2)c(OC)c1 (centres unmarked) [Compound N-17, 4-(2,4,6-Trimethoxyphenyl)-5-[4-(piperidin-1-yl)benzoyl]-3,4-dihydropyrimidin-2(1H)-one] | – | 27.5 | 37.9 | 140 to 142 |
| O=C1NC=C(C(=O)c2ccc(N3CCCCC3)cc2)C(c2ccccc2)N1 (centres unmarked) [Compound N-1, 4-Phenyl-5-[4-(piperidin-1-yl)benzoyl]-3,4-dihydropyrimidin-2(1H)-one] | – | – | – | 220 to 222 |
| CCOc1ccc(C2NC(=O)NC=C2C(=O)c2ccc(N3CCCCC3)cc2)cc1 (centres unmarked) [Compound N-13, 4-(4-Ethoxyphenyl)-5-[4-(piperidin-1-yl)benzoyl]-3,4-dihydropyrimidin-2(1H)-one] | – | 7.1 | 14.2 | 200 to 202 |
| O=C1NC=C(C(=O)c2ccc(N3CCCCC3)cc2)C(c2ccc(Cl)cc2Cl)N1 (centres unmarked) [Compound N-6, 4-(2,4-Dichlorophenyl)-5-[4-(piperidin-1-yl)benzoyl]-3,4-dihydropyrimidin-2(1H)-one] | – | 7.1 | 10.7 | 195 to 197 |
| COc1ccc(C2NC(=O)NC=C2C(=O)c2ccc(N3CCCCC3)cc2)c(OC)c1 (centres unmarked) [Compound N-18, 4-(2,4-Dimethoxyphenyl)-5-[4-(piperidin-1-yl)benzoyl]-3,4-dihydropyrimiden-2(1H)-one] | 6.4 | 16.1 | 22.5 | 135 to 137 |
| COc1cc(OC)c(C2NC(=O)NC=C2C(=O)c2ccc(N3CCCCC3)cc2)cc1OC (centres unmarked) [Compound N-14, 4-(2,4,5-Trimethoxyphenyl)-5-[4-(piperidin-1-yl)benzoyl]-3,4-dihydropyrimiden-2(1H)-one] | 10.3 | 27.5 | 37.9 | 155 to 157 |
| COc1cccc(C2NC(=O)NC=C2C(=O)c2ccc(N3CCCCC3)cc2)c1 (centres unmarked) [Compound N-12, 4-(3-Methoxyphenyl)-5-[4-(piperidin-1-yl)benzoyl]-3,4-dihydropyrimidin-2(1H)-one] | – | 7.1 | 10.7 | 160 to 162 |
| COc1ccc(C2NC(=O)NC=C2C(=O)c2ccc(N3CCCCC3)cc2)cc1OC (centres unmarked) [Compound N-7, 4-(3,4-Dimethoxyphenyl)-5-[4-(piperidin-1-yl)benzoyl]-3,4-dihydropyrimidin-2(1H)-one] | 10 | 26.6 | 33.3 | 145 to 147 |
| O=C1NC=C(C(=O)c2ccc(N3CCCCC3)cc2)C(c2ccc(O)cc2)N1 (centres unmarked) [Compound N-9, 4-(4-Hydroxyphenyl)-5-[4-(piperidin-1-yl)benzoyl]-3,4-dihydropyrimidin-2(1H)-one] | – | 2 | – | 210 to 212 |
